Laboratory results from patent US8652785B2, “Method of screening a modulator of endothelial NO synthase comprising the use of heme binding protein 1” (Sanofi, priority 2008, dated 2014).

Assays:
[1] = tested on: eNOS promoter; experiment: eNOS-transcription test (eNOS-promoter luciferase reporter cell line EA.csr03); type: cell-based; details: Homo sapiens; EA.csr03 cells, nonlinear regression; read-out: EC50 in the eNOS-transcription test
Method: The EA.csr03 cells are cells of a stable eNOS-promoter luciferase cell line. It was obtained by transfection of EA.hy926 cells with a firefly luciferase reporter construct, with a 3.5 kb fragment of the eNOS-promoter added. Cultivation of these cells was carried out with IMDM with GlutaMAX™ I supplemented with 100 U/ml penicillin, 100 μg/ml streptomycin, 10% FCS and 0.4 mg/ml geneticin as selection antibiotic. The EA.hy926 cells are a stable human cell line, which was obtained by fusion of HUVEC with the human […] cell line A549. This cell line is characterized by expression of specific endothelial cell markers, e.g. the “van-Willebrand factor”. The cells used are an original culture of Cora Jean Edgell of passage 32. The cells were cultivated in IMDM with GlutaMAX™ I supplemented with 100 U/ml penicillin, 100 μg/ml streptomycin, HAT Hybri-Max™ medium additive (hypoxanthine, aminopterin and thymidine) and Biotect protective medium.
For transcription test for eNOS promoter activation, 20 000 cells per well of the reporter cell line EA.csr03 were sown in a white 96-well cell culture plate. After 24 hours, various dilutions of the substance in cell culture medium were prepared starting from DMSO stock solutions and were preincubated for 10 min at 37° C. on a water bath. Then these incubation media (100 μl/well) were added to the cells. After incubation for 18 hours, the cells were washed twice with DPBS (100 μl/well) and luciferase lysis buffer (50 μl/well) was added. After 10 min, the solubilized luciferase-substrate luciferin (100 μl/well) was added to the cell lysates. During the luciferase-catalyzed oxidation of luciferin to oxyluciferin there is release of chemiluminescence. […] The light units released were measured in the Genios microplate reader from Tecan Deutschland (Crailsheim, Germany).

[2] = tested on: eNOS promoter; experiment: eNOS-transcription test after siRNA transfection of EA.csr03 cells; type: cell-based, human
Method: For liposomal transfection of siRNA in endothelial cells, EA.hy926 or EA.csr03 cells were sown with a density of 50 000 cells per well in a volume of 100 μl growth medium in 96-well plates. After incubation for 24 h in an incubator, the cells were washed with sterile DPBS and were covered in each case with 100 μl/well of serum-free and antibiotic-free special medium Opti-MEM® I. Then the siRNAs (see below) used were preincubated with Lipofectamine™ 2000 in accordance with the manufacturer's instructions and finally 50 μl/well of the transfection mixture was added to the cells. Unless stated otherwise, the siRNAs were used at final concentrations of 100 nM. Per well, after previous optimization, 0.8 μl of Lipofectamine™ 2000 was used for transfection of the EA.hy926 cells, and 0.5 μl for the EA.csr03 cells. After the cells had been incubated in an incubator for 6 hours, the transfection medium was replaced with normal growth medium and the next experimental steps were carried out in the time frame of 24-72 hours after transfection. Primary HUVECs were sown at 100 000 cells per well in Collagen I-coated 6-well plates and were cultivated in normal growth medium up to 60-70% confluence. Prior to transfection, the cells were washed with sterile DPBS and covered in each case with 800 μl/well of serum-free and antibiotic-free special medium Opti-MEM® I. 6 μl Lipofectin® and siRNA at a final concentration of 100 nM were used per well. […]
The survey of the efficiencies of different siRNAs to the target proteins were tested. The respective residual mRNA was determined by quantitative RT-PCR, 24 hours after transfection of human endothelial cells (EA.hy926/EA.csr03). […] After cell lysis, the luciferase activity and the total cellular protein content were determined.
For transcription test for eNOS promoter activation, 20 000 cells per well of the reporter cell line EA.csr03 were sown in a white 96-well cell culture plate. […] The light units released were measured in the Genios microplate reader from Tecan Deutschland (Crailsheim, Germany). […]

[3] = tested on: HEBP1_predicted mRNA; experiment: HEBP1_predicted expression in cardiac tissue of rats with chronic heart failure after myocardial infarction; type: in vivo; details: 10 mg/kg/day for 9 weeks, versus placebo, mRNA relative to GAPDH
Method: Rats were divided in three groups. One group was sham-operated (group 1), whereas in groups 2 and 3 chronic heart failure was induced by myocardial infarction. Only, the latter group was treated with AVE3085 (10 mg/(kg day)) for 9 weeks. Thereafter, mRNA expression (HEBP1 in comparison to GAPDH) was determined in heart tissue. Means±SD of 7 experiments are shown, * p<0.05 vs. sham operated.
In another context, an animal study was conducted, in which rats developed chronic heart failure after an induced myocardial infarction. From available RNA samples from cardiac tissue it was possible to determine the expression of HEBP1_predicted at the mRNA level. […]
Isolation of RNA from the cell types used was carried out using the RNeasy® mini-isolation method. […] The concentration and purity of the prepared RNA were determined using a NanoDrop® ND-1000 spectrophotometer (NanoDrop Technologies Inc., Wilmington, USA). In this, from a total volume of 2 μl, the absorption of the samples was measured at a wavelength of λ=260 nm (A260) for nucleic acids. Conversion of the measured absorption to the concentration of the RNA solution was carried out by means of the extinction coefficient of 40 ng×cm^−1×μl^−1 on the basis of the Lambert-Beer law. […] The RNA obtained was then diluted in the ratio 1:5 and either used immediately in a quantitative RT-PCR or stored at −80° C. for future use. […]

EC50 [1]: 400 nM
SMILES: O=C(NC1Cc2ccccc2C1)c1ccc2c(c1)OC(F)(F)O2 [AVE3085]
induction of the eNOS promoter versus DMSO-control, HEBP1 switched off using siHEBP1 25 ([2]; AVE3085 5 μM, 18 h, siHEBP1 25): 1.6 factor
induction of the eNOS promoter versus DMSO-control, siLV2-treated control cells ([2]; AVE3085 5 μM, 18 h, siLV2-control): 2.4 factor
reduction of eNOS-promoter activation by AVE3085 after switching-off of HEBP1 by siRNA versus siLV2-control ([2]; HEBP1 siRNA): 64%
influence of treatment on expression of HEBP1_predicted in heart [3]: did not show any influence at all
